Measured values: the supplement of paper PMC10307832

What was measured:
Assay in all cases: relative viability (nuclei count vs DMSO), 5 days (fraction); higher = more cells survive
Kobe2602 + Tozasertib = compound: C1=CC(=CC=C1NC(=S)NNC2=C(C=C(C=C2[N+](=O)[O-])C(F)(F)F)[N+](=O)[O-])F [Kobe2602] + Cc1cc(Nc2cc(N3CCN(C)CC3)nc(Sc3ccc(NC(=O)C4CC4)cc3)n2)n[nH]1 [Tozasertib] (partner 0.1 µM)
Method in brief: (§1)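 Five library-drug doses in √10 steps were combined with a fixed anchor-drug dose, or a single drug was given alone, by pin tool to lung cancer cell lines in 1536-well plates the day after seeding. Nuclei were stained and counted after 5 days. Relative viability is the nuclei count in treated wells over that in vehicle wells, taken as the median of duplicate plates.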

Zosuquidar + Bortezomib = compound: O[C@@H](COc1cccc2ncccc12)CN1CCN([C@@H]2c3ccccc3[C@@H]3[C@H](c4ccccc42)C3(F)F)CC1 [Zosuquidar] + CC(C)C[C@H](NC(=O)[C@H](Cc1ccccc1)NC(=O)c1cnccn1)B(O)O [Bortezomib] (partner 0.002 µM)
Method in brief: as §1

Zosuquidar + Pictilisib = compound: O[C@@H](COc1cccc2ncccc12)CN1CCN([C@@H]2c3ccccc3[C@@H]3[C@H](c4ccccc42)C3(F)F)CC1 [Zosuquidar] + CS(=O)(=O)N1CCN(Cc2cc3nc(-c4cccc5[nH]ncc45)nc(N4CCOCC4)c3s2)CC1 [Pictilisib] (partner 1 µM)
Method in brief: as §1

Zosuquidar + Olaparib = compound: O[C@@H](COc1cccc2ncccc12)CN1CCN([C@@H]2c3ccccc3[C@@H]3[C@H](c4ccccc42)C3(F)F)CC1 [Zosuquidar] + O=C(c1cc(Cc2n[nH]c(=O)c3ccccc23)ccc1F)N1CCN(C(=O)C2CC2)CC1 [Olaparib] (partner 8 µM)
Method in brief: as §1

NCI-H650
relative viability (Kobe2602 + Tozasertib; first compound 0.2 µM): 0.738 | relative viability (Kobe2602 + Tozasertib; first compound 0.6325 µM): 0.757 | relative viability (Kobe2602 + Tozasertib; first compound 2 µM): 0.746 | relative viability (Kobe2602 + Tozasertib; first compound 6.325 µM): 0.789 | relative viability (Kobe2602 + Tozasertib; first compound 20 µM): 0.623 | relative viability (Zosuquidar + Bortezomib; first compound 0.01 µM): 0.858 | relative viability (Zosuquidar + Bortezomib; first compound 0.03162 µM): 0.863 | relative viability (Zosuquidar + Bortezomib; first compound 0.3162 µM): 1.01 | relative viability (Zosuquidar + Bortezomib; first compound 1 µM): 0.919 | relative viability (Zosuquidar + Pictilisib; first compound 0.01 µM): 0.787 | relative viability (Zosuquidar + Pictilisib; first compound 0.03162 µM): 0.789 | relative viability (Zosuquidar + Pictilisib; first compound 0.3162 µM): 1.05 | relative viability (Zosuquidar + Pictilisib; first compound 1 µM): 0.942 | relative viability (Zosuquidar + Olaparib; first compound 0.01 µM): 0.393 | relative viability (Zosuquidar + Olaparib; first compound 0.03162 µM): 0.393 | relative viability (Zosuquidar + Olaparib; first compound 0.1 µM): 0.394 | relative viability (Zosuquidar + Olaparib; first compound 0.3162 µM): 0.454 | relative viability (Zosuquidar + Olaparib; first compound 1 µM): 0.369

NCI-H1651
relative viability (Kobe2602 + Tozasertib; first compound 0.2 µM): 0.683 | relative viability (Kobe2602 + Tozasertib; first compound 0.6325 µM): 0.681 | relative viability (Kobe2602 + Tozasertib; first compound 2 µM): 0.621 | relative viability (Kobe2602 + Tozasertib; first compound 6.325 µM): 0.584 | relative viability (Kobe2602 + Tozasertib; first compound 20 µM): 0.774 | relative viability (Zosuquidar + Bortezomib; first compound 0.01 µM): 0.928 | relative viability (Zosuquidar + Bortezomib; first compound 0.03162 µM): 0.984 | relative viability (Zosuquidar + Bortezomib; first compound 0.1 µM): 0.882 | relative viability (Zosuquidar + Bortezomib; first compound 0.3162 µM): 0.91 | relative viability (Zosuquidar + Bortezomib; first compound 1 µM): 0.866 | relative viability (Zosuquidar + Pictilisib; first compound 0.01 µM): 0.589 | relative viability (Zosuquidar + Pictilisib; first compound 0.03162 µM): 0.661 | relative viability (Zosuquidar + Pictilisib; first compound 0.1 µM): 0.559 | relative viability (Zosuquidar + Pictilisib; first compound 0.3162 µM): 0.668 | relative viability (Zosuquidar + Pictilisib; first compound 1 µM): 0.615 | relative viability (Zosuquidar + Olaparib; first compound 0.01 µM): 0.181 | relative viability (Zosuquidar + Olaparib; first compound 0.03162 µM): 0.194 | relative viability (Zosuquidar + Olaparib; first compound 0.1 µM): 0.169 | relative viability (Zosuquidar + Olaparib; first compound 0.3162 µM): 0.2 | relative viability (Zosuquidar + Olaparib; first compound 1 µM): 0.179

NCI-H1437
relative viability (Kobe2602 + Tozasertib; first compound 0.2 µM): 0.429 | relative viability (Kobe2602 + Tozasertib; first compound 0.6325 µM): 0.403 | relative viability (Kobe2602 + Tozasertib; first compound 2 µM): 0.412 | relative viability (Kobe2602 + Tozasertib; first compound 6.325 µM): 0.322 | relative viability (Kobe2602 + Tozasertib; first compound 20 µM): 0.439 | relative viability (Zosuquidar + Bortezomib; first compound 0.01 µM): 0.468 | relative viability (Zosuquidar + Bortezomib; first compound 0.03162 µM): 0.442 | relative viability (Zosuquidar + Bortezomib; first compound 0.1 µM): 0.475 | relative viability (Zosuquidar + Bortezomib; first compound 0.3162 µM): 0.53 | relative viability (Zosuquidar + Bortezomib; first compound 1 µM): 0.463 | relative viability (Zosuquidar + Pictilisib; first compound 0.01 µM): 0.464 | relative viability (Zosuquidar + Pictilisib; first compound 0.03162 µM): 0.411 | relative viability (Zosuquidar + Pictilisib; first compound 0.1 µM): 0.453 | relative viability (Zosuquidar + Pictilisib; first compound 0.3162 µM): 0.628 | relative viability (Zosuquidar + Pictilisib; first compound 1 µM): 0.506 | relative viability (Zosuquidar + Olaparib; first compound 0.01 µM): 0.591 | relative viability (Zosuquidar + Olaparib; first compound 0.03162 µM): 0.646 | relative viability (Zosuquidar + Olaparib; first compound 0.1 µM): 0.669 | relative viability (Zosuquidar + Olaparib; first compound 0.3162 µM): 0.604 | relative viability (Zosuquidar + Olaparib; first compound 1 µM): 0.662

NCI-H1975
relative viability (Kobe2602 + Tozasertib; first compound 0.2 µM): 0.614 | relative viability (Kobe2602 + Tozasertib; first compound 0.6325 µM): 0.432 | relative viability (Kobe2602 + Tozasertib; first compound 2 µM): 0.511 | relative viability (Kobe2602 + Tozasertib; first compound 6.325 µM): 0.689 | relative viability (Kobe2602 + Tozasertib; first compound 20 µM): 0.355 | relative viability (Zosuquidar + Bortezomib; first compound 0.01 µM): 0.362 | relative viability (Zosuquidar + Bortezomib; first compound 0.03162 µM): 0.34 | relative viability (Zosuquidar + Bortezomib; first compound 0.1 µM): 0.425 | relative viability (Zosuquidar + Bortezomib; first compound 0.3162 µM): 0.437 | relative viability (Zosuquidar + Bortezomib; first compound 1 µM): 0.341 | relative viability (Zosuquidar + Pictilisib; first compound 0.01 µM): 0.289 | relative viability (Zosuquidar + Pictilisib; first compound 0.03162 µM): 0.269 | relative viability (Zosuquidar + Pictilisib; first compound 0.1 µM): 0.292 | relative viability (Zosuquidar + Pictilisib; first compound 0.3162 µM): 0.332 | relative viability (Zosuquidar + Pictilisib; first compound 1 µM): 0.288 | relative viability (Zosuquidar + Olaparib; first compound 0.01 µM): 0.722 | relative viability (Zosuquidar + Olaparib; first compound 0.03162 µM): 0.753 | relative viability (Zosuquidar + Olaparib; first compound 0.1 µM): 0.784 | relative viability (Zosuquidar + Olaparib; first compound 0.3162 µM): 0.734 | relative viability (Zosuquidar + Olaparib; first compound 1 µM): 0.866

BEN
relative viability (Kobe2602 + Tozasertib; first compound 0.2 µM): 0.56 | relative viability (Kobe2602 + Tozasertib; first compound 0.6325 µM): 0.518 | relative viability (Kobe2602 + Tozasertib; first compound 2 µM): 0.491 | relative viability (Kobe2602 + Tozasertib; first compound 6.325 µM): 0.666 | relative viability (Kobe2602 + Tozasertib; first compound 20 µM): 0.555 | relative viability (Zosuquidar + Bortezomib; first compound 0.01 µM): 0.928 | relative viability (Zosuquidar + Bortezomib; first compound 0.03162 µM): 0.734 | relative viability (Zosuquidar + Bortezomib; first compound 0.1 µM): 0.651 | relative viability (Zosuquidar + Bortezomib; first compound 0.3162 µM): 0.882 | relative viability (Zosuquidar + Bortezomib; first compound 1 µM): 0.773 | relative viability (Zosuquidar + Pictilisib; first compound 0.01 µM): 0.665 | relative viability (Zosuquidar + Pictilisib; first compound 0.03162 µM): 0.606 | relative viability (Zosuquidar + Pictilisib; first compound 0.1 µM): 0.482 | relative viability (Zosuquidar + Pictilisib; first compound 0.3162 µM): 0.534 | relative viability (Zosuquidar + Pictilisib; first compound 1 µM): 0.515 | relative viability (Zosuquidar + Olaparib; first compound 0.01 µM): 1.15 | relative viability (Zosuquidar + Olaparib; first compound 0.03162 µM): 0.953 | relative viability (Zosuquidar + Olaparib; first compound 0.1 µM): 0.883 | relative viability (Zosuquidar + Olaparib; first compound 0.3162 µM): 1.02 | relative viability (Zosuquidar + Olaparib; first compound 1 µM): 0.97

NCI-H460
relative viability (Kobe2602 + Tozasertib; first compound 0.2 µM): 0.342 | relative viability (Kobe2602 + Tozasertib; first compound 0.6325 µM): 0.402 | relative viability (Kobe2602 + Tozasertib; first compound 2 µM): 0.411 | relative viability (Kobe2602 + Tozasertib; first compound 6.325 µM): 0.154 | relative viability (Kobe2602 + Tozasertib; first compound 20 µM): 0.0739 | relative viability (Zosuquidar + Bortezomib; first compound 0.01 µM): 1.01 | relative viability (Zosuquidar + Bortezomib; first compound 0.03162 µM): 1.09 | relative viability (Zosuquidar + Bortezomib; first compound 0.1 µM): 1.14 | relative viability (Zosuquidar + Bortezomib; first compound 0.3162 µM): 1.07 | relative viability (Zosuquidar + Bortezomib; first compound 1 µM): 1.1 | relative viability (Zosuquidar + Pictilisib; first compound 0.01 µM): 0.326 | relative viability (Zosuquidar + Pictilisib; first compound 0.03162 µM): 0.393 | relative viability (Zosuquidar + Pictilisib; first compound 0.1 µM): 0.27 | relative viability (Zosuquidar + Pictilisib; first compound 0.3162 µM): 0.437 | relative viability (Zosuquidar + Pictilisib; first compound 1 µM): 0.393 | relative viability (Zosuquidar + Olaparib; first compound 0.01 µM): 0.41 | relative viability (Zosuquidar + Olaparib; first compound 0.03162 µM): 0.403 | relative viability (Zosuquidar + Olaparib; first compound 0.1 µM): 0.32 | relative viability (Zosuquidar + Olaparib; first compound 0.3162 µM): 0.421 | relative viability (Zosuquidar + Olaparib; first compound 1 µM): 0.39

HOP-62
relative viability (Kobe2602 + Tozasertib; first compound 0.2 µM): 0.399 | relative viability (Kobe2602 + Tozasertib; first compound 0.6325 µM): 0.359 | relative viability (Kobe2602 + Tozasertib; first compound 2 µM): 0.418 | relative viability (Kobe2602 + Tozasertib; first compound 6.325 µM): 0.341 | relative viability (Kobe2602 + Tozasertib; first compound 20 µM): 0.335 | relative viability (Zosuquidar + Bortezomib; first compound 0.01 µM): 0.6 | relative viability (Zosuquidar + Bortezomib; first compound 0.03162 µM): 1.01 | relative viability (Zosuquidar + Bortezomib; first compound 0.1 µM): 0.616 | relative viability (Zosuquidar + Bortezomib; first compound 0.3162 µM): 0.42 | relative viability (Zosuquidar + Bortezomib; first compound 1 µM): 0.906 | relative viability (Zosuquidar + Pictilisib; first compound 0.01 µM): 0.684 | relative viability (Zosuquidar + Pictilisib; first compound 0.03162 µM): 0.86 | relative viability (Zosuquidar + Pictilisib; first compound 0.1 µM): 0.579 | relative viability (Zosuquidar + Pictilisib; first compound 0.3162 µM): 0.81 | relative viability (Zosuquidar + Pictilisib; first compound 1 µM): 0.831 | relative viability (Zosuquidar + Olaparib; first compound 0.01 µM): 0.461 | relative viability (Zosuquidar + Olaparib; first compound 0.03162 µM): 0.548 | relative viability (Zosuquidar + Olaparib; first compound 0.1 µM): 0.485 | relative viability (Zosuquidar + Olaparib; first compound 0.3162 µM): 0.665 | relative viability (Zosuquidar + Olaparib; first compound 1 µM): 0.384

HCC-366
relative viability (Kobe2602 + Tozasertib; first compound 0.2 µM): 0.0819 | relative viability (Kobe2602 + Tozasertib; first compound 0.6325 µM): 0.0969 | relative viability (Kobe2602 + Tozasertib; first compound 2 µM): 0.0807 | relative viability (Kobe2602 + Tozasertib; first compound 6.325 µM): 0.0437 | relative viability (Kobe2602 + Tozasertib; first compound 20 µM): 0.0481 | relative viability (Zosuquidar + Bortezomib; first compound 0.01 µM): 0.946 | relative viability (Zosuquidar + Bortezomib; first compound 0.03162 µM): 1.03 | relative viability (Zosuquidar + Bortezomib; first compound 0.1 µM): 1.06 | relative viability (Zosuquidar + Bortezomib; first compound 0.3162 µM): 1.08 | relative viability (Zosuquidar + Bortezomib; first compound 1 µM): 1.07 | relative viability (Zosuquidar + Pictilisib; first compound 0.01 µM): 0.154 | relative viability (Zosuquidar + Pictilisib; first compound 0.03162 µM): 0.185 | relative viability (Zosuquidar + Pictilisib; first compound 0.1 µM): 0.15 | relative viability (Zosuquidar + Pictilisib; first compound 0.3162 µM): 0.151 | relative viability (Zosuquidar + Pictilisib; first compound 1 µM): 0.195 | relative viability (Zosuquidar + Olaparib; first compound 0.01 µM): 0.314 | relative viability (Zosuquidar + Olaparib; first compound 0.03162 µM): 0.377 | relative viability (Zosuquidar + Olaparib; first compound 0.1 µM): 0.415 | relative viability (Zosuquidar + Olaparib; first compound 0.3162 µM): 0.324 | relative viability (Zosuquidar + Olaparib; first compound 1 µM): 0.324
